From patent US8268803B2, “5, 6-ring annulated indole derivatives and use thereof” (Merck Sharp & Dohme Corp., priority 2006, dated 2012) come the findings set out here.

pEC50, pIC50: −log10 of the molar value.

One assay has as its target T1, HCV NS5B polymerase (NS5BΔCT21, from HCV-Con 1 isolate, genotype 1b) (Hepatitis C virus genotype 1b, UniProt Q9WMX2).
T1 construct: A soluble C-terminal 21-amino acid truncated NS5B enzyme form; polyhistidine (C); made in house; host or cells: Escherichia coli
Put plainly: HCV NS5B Polymerase Inhibition Assay. Format: biochemical. The following applies: incorporation of radiolabeled CTP, 22° C. for 2 hours. The text has this: A chemically synthesized 75-mer version, designated DCoH75, whose sequence matches the 3′-end of D-RNA, and DCoH75ddC, where the 3′-terminal cytidine of DCoH75 is replaced by dideoxycytidine, were used for assaying the NS5B enzyme activity as described in Ferrari et al., 12th International Symposium on HCV and Related Viruses, P-306 (2005). The sequence of the template RNA was: 5′-UGUGCCGGUCUUUCUGAACGGGAUAUAAACCUGGCCAGCUUCAUCGAACAAGUUGCCGUGUCUAUGACAUAGAUC-3′ (SEQ ID NO: 1). A soluble C-terminal 21-amino acid truncated NS5B enzyme form (NS5BΔCT21, from HCV-Con 1 isolate, genotype 1b, Genbank accession number AJ238799) was produced and purified from Escherichia coli as C-terminal polyhistidine-tagged fusion protein as described in Ferrari et al., J. Virol. 73:1649-1654 (1999). A typical assay contained 20 mM Hepes pH 7.3, 10 mM MgCl2, 60 mM NaCl, 100 μg/ml BSA, 20 units/ml RNasin, 7.5 mM DTT, 0.1 μm ATP/GTP/UTP, 0.026 μM CTP, 0.25 mM GAU, 0.03 μM RNA template, 20 μCi/ml [^33P]-CTP, 2% DMSO, and 30 or 150 nM NS5B enzyme. Reactions were incubated at 22° C. for 2 hours, then stopped by adding 150 mM EDTA, washed in DE81 filter plate in 0.5M di-basic sodium phosphate buffer, pH 7.0, and counted using Packard TopCount after the addition of scintillation cocktail. Polynucleotide synthesis was monitored by the incorporation of radiolabeled CTP. The effect of the Compounds of Formula (I) on the polymerase activity was evaluated by adding various concentrations of a Compound of Formula (I), typically in 10 serial 2-fold dilutions, to the assay mixture. The starting concentrations ranged from 200 μM to 1 μM. An IC50 value for the inhibitor, defined as the compound concentration that provides 50% inhibition of polymerase activity, was determined by fitting the cpm data to the Hill equation Y=100/(1+10^((Log IC50−X)*HillSlope)), where X is the logarithm of compound concentration, and Y is the % inhibition. Ferrari et al., 12th International Symposium on HCV and Related Viruses, P-306 (2005) described in detail this assay procedure. It should be noted that such an assay as described is exemplary and not intended to limit the scope of the invention. The skilled practitioner can appreciate that modifications including but not limited to RNA template, primer, nucleotides, NS5B polymerase form, buffer composition, can be made to develop similar assays that yield the same result for the efficacy of the compounds and compositions described in the invention.
NS5B polymerase inhibition data for selected Compounds of Formula (I) is provided below in Table 2, wherein the compound numbers correspond to the compound numbering set forth in the above specification.
By pIC50 is commonly meant the IC50 on a negative log10 scale, so that one unit is a factor of ten. For the molecule `CS(=O)(=O)NC(=O)c1c(-c2ccc[nH]c2=O)c2cc3c(cc2n1Cc1ccccc1OCc1ccccc1)CCC3` [Compound 9], the pIC50 is < 7.00.
Same read-out and setting: with `CS(=O)(=O)NC(=O)c1c(-c2ccc[nH]c2=O)c2cc3c(cc2n1Cc1cc(F)ccc1F)CCC3` [Compound 1] the figure was > 7.60.
Still for that read-out and setting: the value for `CS(=O)(=O)NC(=O)c1c(-c2ccc[nH]c2=O)c2cc3c(cc2n1Cc1ccccc1O)CCC3` [Compound 4] was 7.00 to 7.60.
On to `CS(=O)(=O)NC(=O)c1c(-c2ccc[nH]c2=O)c2cc3scnc3cc2n1Cc1ccnc(N)c1` [Compound 12], for which the pIC50 was < 7.00.
In the case of `CS(=O)(=O)NC(=O)c1c(-c2ccc[nH]c2=O)c2cc3c(cc2n1Cc1ccc(O)cc1)CCC3` [Compound 2], the negative-log IC50 (pIC50) is > 7.60.
With `Nc1cc(Cn2c(C(=O)O)c(-c3ccc[nH]c3=O)c3cc4scnc4cc32)ccn1` [Compound 11], the pIC50 is < 7.00.
Still for that read-out and setting: with `O=C(O)c1c(-c2ccc[nH]c2=O)c2cc3c(cc2n1Cc1cc(F)ccc1F)CCC3` [Compound 3] the figure was > 7.60; with `CS(=O)(=O)NC(=O)c1c(-c2ccc[nH]c2=O)c2cc3c(cc2n1Cc1cccc(O)c1)CCC3` [Compound 6], 7.00 to 7.60.
Still for that read-out and setting: the value for `CS(=O)(=O)NC(=O)c1c(-c2ccc[nH]c2=O)c2cc3c(cc2n1Cc1cccc(OCc2ccccc2)c1)CCC3` [Compound 10] was < 7.00.
In turn, `CS(=O)(=O)NC(=O)c1c(-c2ccc[nH]c2=O)c2cc3c(cc2n1Cc1ccc(F)cc1F)CCC3` [Compound 5] gave a pIC50 of 7.00 to 7.60.
Take `CS(=O)(=O)NC(=O)c1c(-c2ccc[nH]c2=O)c2cc3c(cc2n1Cc1ccc(OCc2ccccc2)cc1)CCC3` [Compound 8]: the pIC50 was < 7.00.

In a further assay the test system is HCV replicon cells (replicon RNA level). Put plainly: Cell-Based HCV Replicon Assay. The following applies: Hepatitis C virus, 72 h; replicon RNA level by real time PCR (Taqman), cells harvested on day 3. On the procedure:
To measure cell-based anti-HCV activity of the a Compound of Formula (I), replicon cells were seeded at 5000 cells/well in 96-well collagen I-coated Nunc plates in the presence of the Compound of Formula (I). Various concentrations of a Compound of Formula (I), typically in 10 serial 2-fold dilutions, were added to the assay mixture, with the starting concentration ranging from 250 μM to 1 μM. The final concentration of DMSO was 0.5%, fetal bovine serum was 5%, in the assay media. Cells were harvested on day 3 by the addition of 1× cell lysis buffer (Ambion cat #8721). The replicon RNA level was measured using real time PCR (Taqman assay). The amplicon was located in 5B. The PCR primers were: 5B.2F, ATGGACAGGCGCCCTGA (SEQ ID NO: 2); 5B.2R, […] (SEQ ID NO: 3); the probe sequence was FAM-labeled CACGCCATGCGCTGCGG (SEQ ID NO: 4). GAPDH RNA was used as endogenous control and was amplified in the same reaction as NS5B (multiplex PCR) using primers and VIC-labeled probe recommended by the manufacturer (PE Applied Biosystem). The real-time RT-PCR reactions were run on ABI PRISM 7900HT Sequence Detection System using the following program: 48° C. for 30 min, 95° C. for 10 min, 40 cycles of 95° C. for 15 sec, 60° C. for 1 min. The ΔCT values (CT5B-CTGAPDH) were plotted against the concentration of test compound and fitted to the sigmoid dose-response model using XLfit4 (MDL). EC50 was defined as the concentration of inhibitor necessary to achieve ΔCT=1 over the projected baseline; EC90 the concentration necessary to achieve ΔCT=3.2 over the baseline. Alternatively, to quantitate the absolute amount of replicon RNA, a standard curve was established by including serially diluted T7 transcripts of replicon RNA in the Taqman assay. All Taqman reagents were from PE Applied Biosystems. Such an assay procedure was described in detail in e.g. Malcolm et al., Antimicrobial Agents and Chemotherapy 50: 1013-1020 (2006).
HCV Replicon assay data for selected Compounds of Formula (I) is provided below in Table 3, wherein the compound numbers correspond to the compound numbering set forth in the above specification. The data is designated as follows: “A” for EC50 values less than 1.0 micromolar (μM), “B” for EC50 values between 1.0 and 5.0 μM and “C” for EC50 values greater than 5.0 μM.
In general terms: A replicon is a self-replicating genome or part of one, used to study replication in cells.
For orientation: pEC50 means −log10 of the EC50, conventionally taken in molar units. On to `CS(=O)(=O)NC(=O)c1c(-c2ccc[nH]c2=O)c2cc3c(cc2n1Cc1ccccc1OCc1ccccc1)CCC3` [Compound 9], for which the pEC50 was < 5.30.
On the same count and under the same terms, with `CS(=O)(=O)NC(=O)c1c(-c2ccc[nH]c2=O)c2cc3c(cc2n1Cc1cc(F)ccc1F)CCC3` [Compound 1] the figure was > 6.00.
In the case of `CS(=O)(=O)NC(=O)c1c(-c2ccc[nH]c2=O)c2cc3c(cc2n1Cc1ccccc1O)CCC3` [Compound 4], the pEC50 was 5.30 to 6.00.
On the same count and under the same terms, the value for `CS(=O)(=O)NC(=O)c1c(-c2ccc[nH]c2=O)c2cc3scnc3cc2n1Cc1ccnc(N)c1` [Compound 12] was < 5.30; that for `CS(=O)(=O)NC(=O)c1c(-c2ccc[nH]c2=O)c2cc3c(cc2n1Cc1ccc(O)cc1)CCC3` [Compound 2] was 5.30 to 6.00; that for `O=C(O)c1c(-c2ccc[nH]c2=O)c2cc3c(cc2n1Cc1cc(F)ccc1F)CCC3` [Compound 3] was 5.30 to 6.00.
Same read-out and setting: the value for `CS(=O)(=O)NC(=O)c1c(-c2ccc[nH]c2=O)c2cc3c(cc2n1Cc1cccc(O)c1)CCC3` [Compound 6] was 5.30 to 6.00; that for `CS(=O)(=O)NC(=O)c1c(-c2ccc[nH]c2=O)c2cc3c(cc2n1Cc1ccc(F)cc1F)CCC3` [Compound 5] was 5.30 to 6.00; that for `CS(=O)(=O)NC(=O)c1c(-c2ccc[nH]c2=O)c2cc3c(cc2n1Cc1ccc(OCc2ccccc2)cc1)CCC3` [Compound 8] was < 5.30.
